Test results published in patent US20110263451A1, “BIOLOGICAL MARKERS PREDICTIVE OF RHEUMATOID ARTHRITIS RESPONSE TO LYMPHOTOXIN ANTAGONISTS” (GENENTECH, INC, priority 2008, published 2011).

Tested on: human CD4′ Th1 cells
Experiment: TAPI-1 effect on soluble cytokines shed into culture supernatant of re-activated Th1 cells
Format: cell-based
Method: High Bind 96-well microtiter plates (Meso Scale Discovery (MSD), Gaithersburg, Md.) were spotted with 5 uL goat anti-human LTα clone AF211 (R&D Systems) diluted in PBS/0.05% Tween 20 (PBS/Tween) to 2 μg/ml, and incubated for one hour at room temperature. Wells were blocked with 150 uL PBS+5% BSA for 1-2 hours with agitation. Plates were washed 6× with PBS/Tween and a titration curve of recombinant human LTα3 (Genentech Inc.) controls, and test samples diluted in high salt assay diluent (HSAD: PBS, 0.5% BSA, 0.05% Tween 20, 0.25% CHAPS, 5 mM EDTA, 0.20% BgG, 0.35M NaCl, 10% FBS) were added at 25 μl/well and incubated for 2 hours with agitation. […] Plates were washed, 500 ng/mL Strepavidin-Sulgo-TAG® (MSD) diluted in AD was added at 25 μL/well, and plates were incubated for 30 minutes with agitation. Plates were washed with PBS/Tween 6×, and 150 μl/well of Read Buffer T (MSD) diluted 1:2 in H20 was added to wells. Plates were read on an MA6000 Sector™ Imager (MSD) according to manufacturer's. A weighted 4-parameter fit standard curve was plotted using XLFit (Guildford, UK) and values of unknowns were extrapolated.
Soluble human TNF-α, was detected using a human 96-well TNF-α kit (K111BHA-4, Meso Scale Discovery) according to manufacturer's instructions.
Total human CD4^+ T cells were isolated from PBMC with a CD4^+ T cell isolation kit (Miltenyi Biotec). Cells were cultured in complete DMEM media (DMEM supplemented with 10% FBS, 2 mM glutamine, 2 μM 2-ME, 1 mM sodium pyruvate, 100 U/ml penicillin and 100 μg/ml streptomycin) in presence of 5 μg/ml anti-CD3 mAb and 2 μg/ml anti-CD28 mAb. Human Th subset polarization conditions were as follows: Th0: 5 μg/ml anti-hIL-12, 5 μg/ml anti-hIFN-γ 1 μg/ml anti-hIL-4; Th1: 1 ng/ml rhIL-12, 10 ng/ml rhIFN-γ, 1 μg/ml anti-hIL-4; Th2: 5 ng/ml rhIL-4, 5 μg/ml anti-hIL-12, 6 μg/ml anti-hIFN-γ; Th17: 10 ng/ml rhIL-23, 10 μg/ml anti-hIL-12, 10 μg/ml anti-hIFN-γ. T cells were re-stimulated with 5 μg/mL anti-CD3 and 2 μg/mL anti-CD28 with indicated amount of TNFα protease inhibitor 1 (TAPI-1) (Peptides International) or DMSO as control.
At day1 and day2 after re-stimulation, cells were collected for FACS and RNA preparation; culture supernatants were collected for LT and TNF-α quantitation.
To determine if LTαβ complexes were shed by metalloproteinase cleavage, the TNFα protease inhibitor 1 (TAPI-1), known to inhibit the cleavage of TNFα by ADAM17 protease, was tested on human CD4′ Th1 cells. Culture supernatants were analyzed for solLTαβ, LTα3 and TNFα one day post re-activation in the presence or absence of TAPI-1 (FIGS. 2A & B). T cells were collected, cultured and polarized as in Example 2 above.

[1] = Th1 cells, 10 or 50 μM TAPI-1, 1 day post re-activation

CC(C)C[C@H](CC(=O)NO)C(=O)N[C@@H](Cc1ccc2ccccc2c1)C(=O)N[C@@H](C)C(=O)NCCN [TAPI-1]
increase in cell surface LT (TAPI-1 treated Th1 cells, FACS, data not shown): not accompanied by an increase in cell surface LT | decrease of shed TNFα supernatant concentrations [1]: 3-8 fold | secreted LTα3 in supernatant [1]: not affected | decrease of soluble LTαβ levels in supernatants of re-activated cells (Th1 cells, 10 or 50 μM TAPI-1, 1 day post re-activation, dose dependent): 2-7 fold
